Assay results as given in patent publication US7462646B2, “Osteoclastogenesis inhibitors and uses thereof” (Research Development Foundation, priority 2003, dated 2008).

How the values were obtained:
NF-κB = test: RANKL-induced NF-κB activation by EMSA in RAW 264.7 cells; format: cell-based, mouse
Method: (§1) RAW264.7 cells (1×10^6 cells) were incubated with variable concentrations of guggulsterone for 4 h followed by treatment of the cells with RANKL (10 nM) for 25 min. The samples were then analyzed for NF-κB by EMSA. […] RAW264.7 cells (5×10^6 cells) were incubated with guggulsterone (50 μM) for 4 h followed by treatment of the cells with RANKL (10 nM) for different times. The samples were then analyzed for IKK by immune complex kinase assay.
RAW264.7 cells (1×10^6 cells) were incubated with 1′-Acetoxychavicol (50 μM) and RANKL (10 nm) for different times. The samples were then analyzed for NF-κB by EMSA. […] RAW264.7 cells (1×10^6 cells) were incubated with variable concentrations of 1′-Acetoxychavicol and RANKL (10 nM) for 25 min. The samples were then analyzed for NF-κB by EMSA.
Nuclear extracts were prepared as described earlier (Bharti et al., 2003). Briefly, 2×10^6 RAW264.7 cells were washed with cold PBS, scraped, and suspended in 0.4 ml of hypotonic lysis buffer containing protease inhibitors for 30 min. The cells were then lysed with 12.5 μl of 10% Nonidet P-40. The homogenate was centrifuged, and supernatant containing the cytoplasmic extracts was stored frozen at −80° C. The nuclear pellet was re-suspended in 25 μl ice-cold nuclear extraction buffer. After 30 min of intermittent mixing, the extract was centrifuged, and supernatants containing nuclear extracts were secured. The protein content was measured by the Bradford method. If the extracts were not used immediately, they were stored at −80° C.
NF-κB activation was analyzed by electrophoretic mobility gel shift assay as described (Chaturvedi et al., 1994). […] The radioactive bands from the dried gels were visualized and quantitated by the Phosphorlmager (Molecular Dynamics, Sunnyvale, Calif.) using ImageQuant software.

IκBα = test: RANKL-induced IκBα degradation by Western blotting in RAW 264.7 cells; format: cell-based, mouse
Method: (§2) RAW264.7 cells (1×10^6 cells) were incubated with 1′-Acetoxychavicol (50 μM) and RANKL (10 nM) for different times. The samples were then analyzed for IκBα by western blot. […] RAW264.7 cells (1×10^6 cells) were incubated with different combinations of 1′-Acetoxychavicol (50 μM), RANKL (10 nM), acetyl-leucyl-leucyl-norleucinal (ALLN, 50 μg/ml) for 25 min. The samples were analyzed for phosphorylated IκBα by western blot.
(§3) Thirty to fifty micrograms of cytoplasmic protein extracts were resolved on 10% SDS-PAGE gel. After electrophoresis, the proteins were electrotransferred to a nitrocellulose membrane, blocked with 5% nonfat milk, and probed with antibodies against either IκBα, phospho-IκBα, IKKα, IKKβ, or β-actin (1:3000) for 1 h. Thereafter, the blot was washed, exposed to HRP-conjugated secondary antibodies for 1 h, and finally detected by chemiluminescence (ECL, Amersham Pharmacia Biotech, Arlington Heights, Ill.).

phospho-IκBα = test: RANKL-induced IκBα phosphorylation by Western blotting in RAW 264.7 cells; format: cell-based, mouse; settings: for RANKL-induced phosphorylation of IκBα: RANKL 10 nM
Method: as §2, §3

RAW 264.7 cells = test: Osteoclast differentiation assay (RANKL-induced, TRAP staining); format: cell-based, mouse
Method: Cells were cultured for 5 days after RANKL treatment and stained for TRAP expression. […] Values indicate mean of total osteoclasts in triplicate cultures (error bar indicates s.d.).
RAW264.7 cells (1×10^4 cells) were incubated with guggulsterone (5 μM) and RANKL (5 nM) for different days. The samples were then analyzed for osteoclastogenesis by TRAP assay. […]
RAW264.7 cells were cultured in 24-well dishes at a density of 1×10^4 cells per well and were allowed to adhere overnight. Medium was then replaced and the cells were treated with 100 ng/ml (˜5 nM) RANKL. At day 5, cultures were stained for TRAP expression as described (Shevde et al., 2000) using an acid phosphatase kit, and the total number of TRAP-positive multinucleated osteoclasts (>3 nuclei) per well were counted.

[1] = test system: RAW264.7 cells incubated with MDA-MB-468 cells; test: MDA-MB-468 breast adenocarcinoma cells-induced osteoclastogenesis (TRAP assay); format: cell-based, mouse; settings: five days
Method: (§4) RAW264.7 cells (1×10^4 cells) were incubated either with MDA-MB-468 cells (1×10^3 cells) or with MCF-7 cells (1×10^3 cells) in the presence of varying concentrations of 1′-Acetoxychavicol for five days and then analyzed for osteoclastogenesis by TRAP assay.
(§5) RAW264.7 cells (1×10^4 cells) were incubated with MDA-MB-468 cells (1×10^3 cells) or with MCF-7 cells (1×10^3 cells) in the presence of varying concentrations of guggulsterone for five days and then analyzed for osteoclastogenesis by TRAP assay.
(§6) The ability of tumor cells to induce osteoclastogenesis was also investigated in this study. Cells from head and neck squamous cell carcinoma and breast adenocarcinoma were used for this purpose. Briefly, RAW264.7 cells were incubated with different numbers of cells of head and neck squamous cell carcinoma (HN5, Fadu) or breast adenocarcinoma (MDA-MB-468, MCF-7) and then analyzed for osteoclastogenesis by TRAP assay.

[2] = test system: RAW264.7 cells incubated with MCF-7 cells; test: MCF-7 breast adenocarcinoma cells-induced osteoclastogenesis (TRAP assay); format: cell-based, mouse; settings: five days
Method: as §4, §5, §6

IκB kinase (IKK) = target: T1, IκB kinase (IKK) (Mus musculus, UniProt O88351+Q60680); test: IκB kinase (immune complex kinase) assay on extracts of treated RAW 264.7 cells; format: cell-based
T1 construct: 200 μg cytoplasmic extracts were immunoprecipitated with 1 μg of anti-IKKα and anti-IKKβ antibodies each; endogenous in cells; host or cells: RAW 264.7 (mouse macrophage cell line), cytoplasmic extracts, immunoprecipitated with anti-IKKα and anti-IKKβ
Method: as §1

IKKα = IKKα protein expression by Western blotting; format: cell-based, mouse; settings: curcumin 50 μM; FIG. 2C middle/lower panel
Method: as §3
(§7) The IκB kinase assay was performed by a modified method as described earlier (Manna et al., 2000). Briefly, 200 μg cytoplasmic extracts were immunoprecipitated with 1 μg of anti-IKKα and anti-IKKβ antibodies each, and the immune complexes so formed were precipitated with 0.01 ml of protein A/G-Sepharose beads for 2 hours. The beads were washed first with lysis buffer and then with the kinase assay buffer (50 mM HEPES pH 7.4, 20 mM MgCl2, and 2 mM DTT). The immune complex was then assayed for kinase activity usinig kinase assay buffer containing 20 μCi [γ-^32P] ATP, 10 μM unlabeled ATP, and 2 μg/sample glutathione S-transferase-IκBα (amino acids 1-54). After incubation at 30° C. for 30 min, the mixture was boiled with 6×SDS sample buffer to stop the reaction. […] The radioactive bands of the dried gel were visualized and quantitated by Phosphorlmager. […]

IKKβ = IKKβ protein expression by Western blotting; format: cell-based, mouse; settings: curcumin 50 μM; FIG. 2C middle/lower panel
Method: as §3, §7

[3] = curcumin 10 μM, RANKL 5 nM, 5 days, FIG. 4

T1 sequence (Q60680 whole entry): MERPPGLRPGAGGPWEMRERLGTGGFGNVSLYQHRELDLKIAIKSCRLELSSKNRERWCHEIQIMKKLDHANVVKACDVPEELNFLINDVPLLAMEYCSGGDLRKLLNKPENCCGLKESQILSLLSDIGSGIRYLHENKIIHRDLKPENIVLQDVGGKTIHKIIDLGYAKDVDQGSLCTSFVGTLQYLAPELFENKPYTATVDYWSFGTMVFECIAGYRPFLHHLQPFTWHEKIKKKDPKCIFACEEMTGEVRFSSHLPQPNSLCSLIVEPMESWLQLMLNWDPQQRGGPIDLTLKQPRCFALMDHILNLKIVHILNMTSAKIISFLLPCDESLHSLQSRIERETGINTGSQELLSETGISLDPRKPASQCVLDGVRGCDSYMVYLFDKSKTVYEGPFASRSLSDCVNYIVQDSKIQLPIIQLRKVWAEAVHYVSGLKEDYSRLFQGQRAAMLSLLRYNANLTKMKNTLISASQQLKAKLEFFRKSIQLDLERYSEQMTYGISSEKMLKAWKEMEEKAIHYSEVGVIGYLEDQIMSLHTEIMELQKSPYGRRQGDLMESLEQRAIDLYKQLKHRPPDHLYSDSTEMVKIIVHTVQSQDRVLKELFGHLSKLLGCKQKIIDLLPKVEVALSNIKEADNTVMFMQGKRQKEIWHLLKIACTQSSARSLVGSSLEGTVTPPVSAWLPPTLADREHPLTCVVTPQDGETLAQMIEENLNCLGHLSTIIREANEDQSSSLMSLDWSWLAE
T1 sequence (O88351 whole entry): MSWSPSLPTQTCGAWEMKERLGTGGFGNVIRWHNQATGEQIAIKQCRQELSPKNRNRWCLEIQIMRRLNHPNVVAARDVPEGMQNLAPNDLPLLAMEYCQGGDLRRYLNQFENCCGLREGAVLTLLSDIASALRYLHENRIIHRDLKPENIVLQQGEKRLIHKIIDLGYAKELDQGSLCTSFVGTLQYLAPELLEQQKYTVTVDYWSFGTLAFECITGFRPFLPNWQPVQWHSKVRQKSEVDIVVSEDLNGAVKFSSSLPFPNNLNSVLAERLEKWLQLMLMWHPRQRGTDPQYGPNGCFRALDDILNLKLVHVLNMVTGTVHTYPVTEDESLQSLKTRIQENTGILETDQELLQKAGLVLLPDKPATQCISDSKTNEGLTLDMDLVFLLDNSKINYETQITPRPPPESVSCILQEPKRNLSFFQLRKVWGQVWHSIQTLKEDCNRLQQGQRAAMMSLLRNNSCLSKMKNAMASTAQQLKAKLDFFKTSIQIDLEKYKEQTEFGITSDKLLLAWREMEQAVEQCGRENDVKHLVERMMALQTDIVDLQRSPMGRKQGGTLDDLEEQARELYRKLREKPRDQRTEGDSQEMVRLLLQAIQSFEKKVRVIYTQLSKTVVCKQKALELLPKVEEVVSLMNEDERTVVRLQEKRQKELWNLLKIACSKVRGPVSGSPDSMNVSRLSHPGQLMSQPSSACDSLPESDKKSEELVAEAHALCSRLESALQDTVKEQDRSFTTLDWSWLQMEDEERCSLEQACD
T1 sequence (O88522 whole entry partner): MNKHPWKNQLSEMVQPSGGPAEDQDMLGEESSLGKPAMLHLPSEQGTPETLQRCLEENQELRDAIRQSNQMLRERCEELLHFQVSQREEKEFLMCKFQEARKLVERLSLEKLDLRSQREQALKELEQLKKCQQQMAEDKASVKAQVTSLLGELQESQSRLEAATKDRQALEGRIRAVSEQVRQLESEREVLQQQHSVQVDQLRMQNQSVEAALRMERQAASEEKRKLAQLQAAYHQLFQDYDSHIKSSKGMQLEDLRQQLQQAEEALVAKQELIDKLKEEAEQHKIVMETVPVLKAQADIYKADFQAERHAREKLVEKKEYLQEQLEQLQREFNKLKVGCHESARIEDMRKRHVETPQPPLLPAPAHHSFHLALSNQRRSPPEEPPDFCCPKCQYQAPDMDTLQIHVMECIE

SMILES: C=CC(OC(C)=O)c1ccc(O)cc1 (stereo not shown) [1′-Acetoxychavicol]
- RANKL-induced NF-κB activation (EMSA), time course (NF-κB; 1′-Acetoxychavicol 50 μM and RANKL 10 nM for different times, FIG. 9A): suppressed RANKL-induced NF-κB activation in time-dependent manner
- concentration of 1′-Acetoxychavicol at which maximal inhibition of RANKL-induced NF-κB activation was observed (NF-κB; RANKL 10 nM 25 min, FIG. 9B): 50 µM
- RANKL-induced NF-κB activation (EMSA), dose dependence (NF-κB; variable concentrations of 1′-Acetoxychavicol and RANKL 10 nM for 25 min, FIG. 9B): suppressed RANKL-induced NF-κB activation in a dose-dependent manner
- RANKL-induced IκBα level (degradation) (IκBα; 1′-Acetoxychavicol 50 μM and RANKL 10 nM for different times, FIG. 10A): no decrease in the RANKL-induced IκBα level
- RANKL-induced phosphorylation of IκBα (phospho-IκBα; 1′-Acetoxychavicol 50 μM, ALLN 50 μg/ml, 25 min, FIG. 10B): suppressed
- RANKL-induced osteoclastogenesis (TRAP assay), incubated for 3 days (RAW 264.7 cells; 1′-Acetoxychavicol 0.5 μM and RANKL 5 nM, 3 days, FIG. 11A): able to suppress the RANKL-induced osteoclastogenesis
- RANKL-induced osteoclastogenesis (TRAP assay), incubated for longer than 3 days (RAW 264.7 cells; 1′-Acetoxychavicol 0.5 μM and RANKL 5 nM, longer time, FIG. 11A): osteoclasts were seen
- RANKL-induced osteoclastogenesis, time of addition of 1′-Acetoxychavicol (RAW 264.7 cells; RANKL 5 nM, 1′-Acetoxychavicol 0.5 μM added on different days, FIG. 12): suppressed RANKL-induced osteoclastogenesis only when added together with RANKL
- number of RANKL-induced osteoclasts versus 1′-Acetoxychavicol concentration (RAW 264.7 cells; different concentrations of 1′-Acetoxychavicol, RANKL 5 nM, FIG. 11B): decreased with increasing concentrations of 1′-Acetoxychavicol
- number of TRAP-positive cells, MDA-MB-468 co-incubation ([1]; varying concentrations of 1′-Acetoxychavicol, FIG. 15B): decreased as the concentration of 1′-Acetoxychavicol increased
- MDA-MB-468 cells induced osteoclastogenesis ([1]; varying concentrations of 1′-Acetoxychavicol, FIGS. 15A and 15B): suppressed
- number of TRAP-positive cells, MCF-7 co-incubation ([2]; varying concentrations of 1′-Acetoxychavicol, FIG. 15D): decreased as the concentration of 1′-Acetoxychavicol increased
- MCF-7 cells induced osteoclastogenesis ([2]; varying concentrations of 1′-Acetoxychavicol, FIGS. 15C and 15D): suppressed

SMILES: COc1cc(/C=C/C(=O)CC(=O)/C=C/c2ccc(O)c(OC)c2)ccc1O [curcumin, diferuloylmethane]
- RANKL-induced NF-κB activation (EMSA) (NF-κB; curcumin 50 μM for 2 hours, then RANKL 10 nM, FIG. 1A): completely abrogated the RANKL-induced NF-κB activation
- concentration of curcumin at which complete inhibition of RANKL-induced NF-κB activation was observed (NF-κB; curcumin 2 h, then RANKL 10 nM, FIG. 1B): 50 µM
- dose dependence of inhibition of RANKL-induced NF-κB (NF-κB; indicated concentrations of curcumin 2 h, then RANKL 10 nM, FIG. 1B): increased as the dose of curcumin was increased
- RANKL-induced IκBα level (degradation) (IκBα; curcumin 50 μM 2 h pretreatment, RANKL 10 nM, FIG. 2A): no decrease in the RANKL-induced IκBα level
- RANKL-induced phosphorylation of IκBα (phospho-IκBα; curcumin 50 μM 2 h pretreatment, FIG. 2B): eliminated the RANKL-induced phosphorylation
- phosphorylation of IκBα, curcumin alone (phospho-IκBα; curcumin alone, no RANKL, FIG. 2B): did not result in phosphorylation of IκBα
- RANKL-induced IKK activity (phosphorylation of GST-IκBα substrate) (IκB kinase (IKK); curcumin 50 μM 2 h pretreatment, RANKL 10 nM, FIG. 2C upper panel): could not phosphorylate guggulsterone T-IκBα upon RANKL treatment
- expression of IKKα (IKKα): did not alter the expression
- expression of IKKβ (IKKβ): did not alter the expression
- number of RANKL-induced osteoclasts versus curcumin concentration (RAW 264.7 cells; RANKL 5 nM, different concentrations of curcumin, 5 days, FIG. 3B): number of osteoclasts decreased with increasing concentration of curcumin
- RANKL-induced osteoclastogenesis, curcumin added together with RANKL (RAW 264.7 cells; curcumin 10 μM added at the same time as RANKL 5 nM, 5 days): suppressed osteoclastogenesis maximally
- RANKL-induced osteoclastogenesis, curcumin added 24 hours after RANKL (RAW 264.7 cells; [3]): inhibited osteoclastogenesis
- RANKL-induced osteoclastogenesis, curcumin added 2 days after RANKL (RAW 264.7 cells; [3]): inhibitory effect decreased significantly

SMILES: C/C=C1\C(=O)C[C@H]2[C@@H]3CCC4=CC(=O)CC[C@]4(C)[C@H]3CC[C@]12C [guggulsterone]
- concentration of guggulsterone at which maximal inhibition of RANKL-induced NF-κB activation was observed (NF-κB; guggulsterone 4 h, then RANKL 10 nM 25 min, FIG. 6A): 50 µM
- NF-κB activation, guggulsterone alone (NF-κB; guggulsterone in the absence of RANKL, FIG. 6A): no NF-κB activation
- dose dependence of suppression of RANKL-induced NF-κB activation (EMSA) (NF-κB; variable concentrations of guggulsterone 4 h, then RANKL 10 nM 25 min, FIG. 6A): suppression of this activation increased as the concentration of guggulsterone increased
- RANKL-induced IKK activity (immune complex kinase assay) (IκB kinase (IKK); guggulsterone 50 μM 4 h pretreatment, RANKL 10 nM different times, FIG. 6B): absence of IKK activity upon RANKL treatment
- RANKL-induced osteoclastogenesis, time of addition of guggulsterone (RAW 264.7 cells; RANKL 5 nM, guggulsterone 5 μM added on different days, FIG. 8): suppressed RANKL-induced osteoclastogenesis only when added together with RANKL
- RANKL-induced osteoclastogenesis (TRAP assay) (RAW 264.7 cells; guggulsterone 5 μM and RANKL 5 nM for different days, FIG. 7A): suppressed RANKL-induced osteoclastogenesis
- number of RANKL-induced TRAP positive cells (RAW 264.7 cells; guggulsterone, RANKL 5 nM, FIG. 7B): decreased with increasing concentration of guggulsterone
- number of TRAP-positive cells, MDA-MB-468 co-incubation ([1]; varying concentrations of guggulsterone, FIG. 16B): decreased as the concentration of guggulsterone increased
- MDA-MB-468 cells induced osteoclastogenesis ([1]; varying concentrations of guggulsterone, FIGS. 16A and 16B): suppressed
- number of TRAP-positive cells, MCF-7 co-incubation ([2]; varying concentrations of guggulsterone, FIG. 16D): decreased as the concentration of guggulsterone increased
- MCF-7 cells induced osteoclastogenesis ([2]; varying concentrations of guggulsterone, FIGS. 16C and 16D): suppressed
